Patent USRE40086E1, “Method for treating bacterial infection with novel 7-substituted-9-substituted amino 6-demethyl-6-deoxytetracyclines” (Wyeth Holdings Corporation, priority 1991, dated 2008)

Tests used:
[1] = test system: S. aureus UBMS 88-5 (tetM); assay: MIC, agar dilution; type: cell-based; details: S. aureus UBMS 88-5 TetM; Table IA; unit assumed
[2] = test system: S. aureus UBMS 88-4 (Sensitive); assay: MIC, agar dilution; type: cell-based; details: S. aureus UBMS 88-4; Table IA; unit assumed
[3] = test system: S. aureus UBMS 90-1 (tetM); assay: MIC, agar dilution; type: cell-based; details: S. aureus UBMS 90-1 TetM; Table IA; unit assumed
[4] = test system: S. aureus UBMS 90-2 (tetM); assay: MIC, agar dilution; type: cell-based; details: S. aureus UBMS 90-2 TetM; Table IA; unit assumed
[5] = test system: S. aureus UBMS 90-3 (Sensitive); assay: MIC, agar dilution; type: cell-based; details: S. aureus UBMS 90-3; Table IA; unit assumed
[6] = test system: S. aureus UBMS 88-7 (tetK); assay: MIC, agar dilution; type: cell-based; details: S. aureus UBMS 88-7 TetK; Table IA; unit assumed
[7] = test system: S. aureus IVES 2943 (meth. resistant); assay: MIC, agar dilution; type: cell-based; details: S. aureus IVES 2943; Table IA; unit assumed
[8] = test system: S. aureus IVES 1983 (meth. resistant); assay: MIC, agar dilution; type: cell-based; details: S. aureus IVES 1983; Table IA; unit assumed
[9] = test system: S. aureus ATCC 29213 (Sensitive); assay: MIC, agar dilution; type: cell-based; details: S. aureus ATCC 29213; Table IA; unit assumed
[10] = test system: S. aureus Smith (Sensitive); assay: MIC, agar dilution; type: cell-based; details: S. aureus SMITH (MP); Table IA; unit assumed
[11] = test system: S. haemolyticus AVAH 88-3; assay: MIC, agar dilution; type: cell-based; details: S. hemolyticus AVHAH 88-3; Table IA; unit assumed
E. faecalis 12201 = assay: MIC, agar dilution; type: cell-based; details: Enterococcus 12201; Table IA; unit assumed
E. faecalis ATCC 29212 = assay: MIC, agar dilution; type: cell-based; details: E. faecalis ATCC 29212; Table IA; unit assumed
E. coli UBMS 88-1 (tetB) = assay: MIC, agar dilution; type: cell-based; details: E. coli UBMS 88-1 TetB; Table IA; unit assumed
E. coli UBMS 89-1 (tetM) = assay: MIC, agar dilution; type: cell-based; details: E. coli UBMS 89-1 TetM; Table IA; unit assumed
[12] = test system: E. coli UBMS 89-2 (Sensitive); assay: MIC, agar dilution; type: cell-based; details: E. coli UBMS 89-2 Tet Sens.; Table IA; unit assumed
E. coli ATCC 25922 = assay: MIC, agar dilution; type: cell-based; details: E. coli ATCC 25922; Table IA; unit assumed
E. coli UBMS 90-4 (tetM) = assay: MIC, agar dilution; type: cell-based; details: E. coli UBMS 90-4 TetM; Table IA; unit assumed
S. aureus SMITH (sens) [13] = assay: In vivo antibacterial evaluation, acute lethal infection in mice; details: Oral
Excerpt: In Vivo Antibacterial Evaluation (Table VII)

E. coli J3272 Tet sens. = assay: MIC, agar dilution (Table IA); type: cell-based; details: unit assumed
E. coli MC4100 TetB = assay: MIC, agar dilution (Table IA); type: cell-based; details: unit assumed
E. coli PRP1 TetA = assay: MIC, agar dilution (Table IA); type: cell-based; details: unit assumed
E. coli J3272 TetC = assay: MIC, agar dilution (Table IA); type: cell-based; details: unit assumed
E. coli J2175 = assay: MIC, agar dilution (Table IA); type: cell-based; details: unit assumed
E. coli BAJ9003 = assay: MIC, agar dilution (Table IA); type: cell-based; details: unit assumed
E. coli UBMS 90-5 = assay: MIC, agar dilution (Table IA); type: cell-based; details: unit assumed
E. coli #311 (MP) = assay: MIC, agar dilution (Table IA); type: cell-based; details: unit assumed
E. coli J3272 TetD = assay: MIC, agar dilution (Table IA); type: cell-based; details: unit assumed
S. mariescens FDOR 8733 = assay: MIC, agar dilution (Table IA); type: cell-based; details: unit assumed
[14] = test system: X. maltophilia NEMC 87210; assay: MIC, agar dilution (Table IA); type: cell-based; details: unit assumed
[15] = test system: Ps. acruginosa ATCC 27853; assay: MIC, agar dilution (Table IA); type: cell-based; details: unit assumed
S. aureus NEMC 8769/89-4 = assay: MIC, agar dilution (Table IA); type: cell-based; details: unit assumed
S. aureus ROSE (MP) = assay: MIC, agar dilution (Table IA); type: cell-based; details: unit assumed
S. aureus SMITH (sens) [16] = assay: In vivo antibacterial evaluation, acute lethal infection in mice; details: Intraveneous

In the case of `CCCCNCC(=O)Nc1cc(N(C)C)c2c(c1O)C(=O)C1=C(O)C3(O)C(=O)C(C(N)=O)=C(O)C(N(C)C)C3CC1C2.Cl.Cl` (stereo not drawn) [PP, [4S-(4alpha,12aalpha)]-4,7-Bis(dimethylamino)-9-[[(butylamino)acetyl]amino)-1,4,4a,5,5a,6,11,12a-octahydro-3,10,12,12a-tetrahydroxy-1,11-dioxo-2-naphthacenecarboxamide dihydrochloride], the Antibacterial activity (MIC) [1] is reported as 0.5 µg/mL, the Antibacterial activity (MIC) [2] is reported as 0.25 µg/mL and the Antibacterial activity (MIC) [3] is reported as 0.5 µg/mL. The Antibacterial activity (MIC) [4] was 0.5 µg/mL, the Antibacterial activity (MIC) [5] was 0.25 µg/mL and the Antibacterial activity (MIC) [6] was 2 µg/mL. The Antibacterial activity (MIC) [7] was 2 µg/mL, the Antibacterial activity (MIC) [8] was 2 µg/mL and the Antibacterial activity (MIC) [9] was 0.25 µg/mL. It also gave an Antibacterial activity (MIC) [10] of 0.12 µg/mL, an Antibacterial activity (MIC) [11] of 0.25 µg/mL and an Antibacterial activity (MIC) (E. faecalis 12201) of 0.12 µg/mL. It also gave an Antibacterial activity (MIC) (E. faecalis ATCC 29212) of 0.12 µg/mL, an Antibacterial activity (MIC) (E. coli UBMS 88-1 (tetB)) of 0.5 µg/mL and an Antibacterial activity (MIC) (E. coli UBMS 89-1 (tetM)) of 0.25 µg/mL. The Antibacterial activity (MIC) [12] was 0.5 µg/mL, the Antibacterial activity (MIC) (E. coli ATCC 25922) was 0.25 µg/mL and the Antibacterial activity (MIC) (E. coli UBMS 90-4 (tetM)) was 0.25 µg/mL. It also gave an ED50 (S. aureus SMITH (sens) [13]) of over 16 mg/kg, an Antibacterial activity (MIC) (E. coli J3272 Tet sens.) of 0.5 µg/mL and an Antibacterial activity (MIC) (E. coli MC4100 TetB) of 0.5 µg/mL. It also gave an Antibacterial activity (MIC) (E. coli PRP1 TetA) of 1 µg/mL, an Antibacterial activity (MIC) (E. coli J3272 TetC) of 0.5 µg/mL and an Antibacterial activity (MIC) (E. coli J2175) of 0.25 µg/mL. The Antibacterial activity (MIC) (E. coli BAJ9003) was 0.12 µg/mL, the Antibacterial activity (MIC) (E. coli UBMS 90-5) was 0.5 µg/mL and the Antibacterial activity (MIC) (E. coli #311 (MP)) was 0.25 µg/mL. It also gave an Antibacterial activity (MIC) (E. coli J3272 TetD) of 0.25 µg/mL, an Antibacterial activity (MIC) (S. mariescens FDOR 8733) of 2 µg/mL and an Antibacterial activity (MIC) [14] of 0.5 µg/mL. It also gave an Antibacterial activity (MIC) [15] of 16 µg/mL, an Antibacterial activity (MIC) (S. aureus NEMC 8769/89-4) of 0.12 µg/mL and an Antibacterial activity (MIC) (S. aureus ROSE (MP)) of 2 µg/mL. The ED50 (S. aureus SMITH (sens) [16]) was 1 to 2 mg/kg.
`CC(C)CNCC(=O)Nc1cc(N(C)C)c2c(c1O)C(=O)C1=C(O)C3(O)C(=O)C(C(N)=O)=C(O)C(N(C)C)C3CC1C2.Cl.Cl` (stereo not drawn) [TT, [4S-(4alpha,12aalpha)]-4,7-Bis(dimethylamino)-1,4,4a,5,5a,6,11,12a-octahydro-3,10,12,12a-tetrahydroxy-9-[[[(2-methylpropyl)amino]acetyl]amino)-1,11-dioxo-2-naphthacenecarboxamide dihydrochloride] was tested, and the Antibacterial activity (MIC) [1] was 0.25 µg/mL, the Antibacterial activity (MIC) [2] was 0.25 µg/mL and the Antibacterial activity (MIC) [3] was 0.25 µg/mL. For the same compound, the Antibacterial activity (MIC) [4] was 0.25 µg/mL, the Antibacterial activity (MIC) [5] was 0.12 µg/mL and the Antibacterial activity (MIC) [6] was 2 µg/mL. It also gave an Antibacterial activity (MIC) [7] of 2 µg/mL, an Antibacterial activity (MIC) [8] of 2 µg/mL and an Antibacterial activity (MIC) [9] of 0.25 µg/mL. It also gave an Antibacterial activity (MIC) [10] of 0.12 µg/mL, an Antibacterial activity (MIC) [11] of 0.5 µg/mL and an Antibacterial activity (MIC) (E. faecalis 12201) of 0.25 µg/mL. For the same compound, the Antibacterial activity (MIC) (E. faecalis ATCC 29212) was 0.25 µg/mL, the Antibacterial activity (MIC) (E. coli UBMS 88-1 (tetB)) was 0.5 µg/mL and the Antibacterial activity (MIC) (E. coli UBMS 89-1 (tetM)) was 0.25 µg/mL. It also gave an Antibacterial activity (MIC) [12] of 0.5 µg/mL, an Antibacterial activity (MIC) (E. coli ATCC 25922) of 0.5 µg/mL and an Antibacterial activity (MIC) (E. coli UBMS 90-4 (tetM)) of 0.5 µg/mL. It also gave an ED50 (S. aureus SMITH (sens) [13]) of 8 to 16 mg/kg, an Antibacterial activity (MIC) (E. coli J3272 Tet sens.) of 0.5 µg/mL and an Antibacterial activity (MIC) (E. coli MC4100 TetB) of 0.5 µg/mL. It also gave an Antibacterial activity (MIC) (E. coli PRP1 TetA) of 2 µg/mL, an Antibacterial activity (MIC) (E. coli J3272 TetC) of 0.5 µg/mL and an Antibacterial activity (MIC) (E. coli J2175) of 0.5 µg/mL. The Antibacterial activity (MIC) (E. coli BAJ9003) was 0.06 µg/mL, the Antibacterial activity (MIC) (E. coli UBMS 90-5) was 0.5 µg/mL and the Antibacterial activity (MIC) (E. coli #311 (MP)) was 0.5 µg/mL. It also gave an Antibacterial activity (MIC) (E. coli J3272 TetD) of 0.12 µg/mL, an Antibacterial activity (MIC) (S. mariescens FDOR 8733) of 4 µg/mL and an Antibacterial activity (MIC) [14] of 0.5 µg/mL. It also gave an Antibacterial activity (MIC) [15] of 16 µg/mL, an Antibacterial activity (MIC) (S. aureus NEMC 8769/89-4) of 0.03 µg/mL and an Antibacterial activity (MIC) (S. aureus ROSE (MP)) of 2 µg/mL. For the same compound, the ED50 (S. aureus SMITH (sens) [16]) was 1 to 2 mg/kg.
`CNC(C)C(=O)Nc1cc(N(C)C)c2c(c1O)C(=O)C1=C(O)[C@]3(O)C(=O)C(C(N)=O)=C(O)[C@@H](N(C)C)C3CC1C2.Cl.Cl` (stereo partly drawn) [YY, [4S-(4alpha,12aalpha))-4,7-Bis(dimethylamino)-1,4,4a,5,5a,6,11,12a-octahydro-3,10,12,12a-tetrahydroxy-9-[[2-(methylamino)-1-oxopropyl]amino]-1,11-dioxo-2-naphthacenecarboxamide dihydrochloride] gave an Antibacterial activity (MIC) [1] of 0.5 µg/mL, an Antibacterial activity (MIC) [2] of 0.5 µg/mL and an Antibacterial activity (MIC) [3] of 0.25 µg/mL. It also gave an Antibacterial activity (MIC) [4] of 0.25 µg/mL, an Antibacterial activity (MIC) [5] of 0.12 µg/mL and an Antibacterial activity (MIC) [6] of 4 µg/mL. The Antibacterial activity (MIC) [7] was 8 µg/mL, the Antibacterial activity (MIC) [8] was 4 µg/mL and the Antibacterial activity (MIC) [9] was 0.5 µg/mL. For the same compound, the Antibacterial activity (MIC) [10] was 0.25 µg/mL, the Antibacterial activity (MIC) [11] was 0.5 µg/mL and the Antibacterial activity (MIC) (E. faecalis 12201) was 0.25 µg/mL. It also gave an Antibacterial activity (MIC) (E. faecalis ATCC 29212) of 0.12 µg/mL, an Antibacterial activity (MIC) (E. coli UBMS 88-1 (tetB)) of 0.5 µg/mL and an Antibacterial activity (MIC) (E. coli UBMS 89-1 (tetM)) of 0.5 µg/mL. For the same compound, the Antibacterial activity (MIC) [12] was 0.5 µg/mL, the Antibacterial activity (MIC) (E. coli ATCC 25922) was 0.5 µg/mL and the Antibacterial activity (MIC) (E. coli UBMS 90-4 (tetM)) was 0.5 µg/mL. It also gave an ED50 (S. aureus SMITH (sens) [13]) of over 16 mg/kg, an Antibacterial activity (MIC) (E. coli J3272 Tet sens.) of 0.5 µg/mL and an Antibacterial activity (MIC) (E. coli MC4100 TetB) of 0.5 µg/mL. It also gave an Antibacterial activity (MIC) (E. coli PRP1 TetA) of 2 µg/mL, an Antibacterial activity (MIC) (E. coli J3272 TetC) of 1 µg/mL and an Antibacterial activity (MIC) (E. coli J2175) of 0.5 µg/mL. It also gave an Antibacterial activity (MIC) (E. coli BAJ9003) of 0.06 µg/mL, an Antibacterial activity (MIC) (E. coli UBMS 90-5) of 0.5 µg/mL and an Antibacterial activity (MIC) (E. coli #311 (MP)) of 0.5 µg/mL. It also gave an Antibacterial activity (MIC) (E. coli J3272 TetD) of 0.25 µg/mL, an Antibacterial activity (MIC) (S. mariescens FDOR 8733) of 8 µg/mL and an Antibacterial activity (MIC) [14] of 4 µg/mL. For the same compound, the Antibacterial activity (MIC) [15] was 16 µg/mL, the Antibacterial activity (MIC) (S. aureus NEMC 8769/89-4) was 0.12 µg/mL and the Antibacterial activity (MIC) (S. aureus ROSE (MP)) was 8 µg/mL. The ED50 (S. aureus SMITH (sens) [16]) was 0.5 to 1 mg/kg.
